Experimental data from patent EP0603240B1, “SAFENING HERBICIDAL PYRAZOLYLSULFONYLUREAS” (priority 1991, dated 1993).
Where two headings read alike, the source gives them in different places.

What was measured:
Type in all cases: in vivo
[1] = system: velvetleaf (Abutilon theophrasti); assay: Example 22: retest of Example 21 at reduced greenhouse temperatures; settings: Table 22
Method: Containers were filled and compacted with a fumigated silt loam top soil to a depth of about 1.3 cm from the top of the container. A first container was designated as an untreated control, a second container was designated as a herbicide control, and a third container was designated as a herbicide + antidote test container. Each of the containers was seeded with a crop species. A measured amount of herbicide dispersed or dissolved in acetone was applied to a measured quantity of soil. To this same quantity of soil treated with herbicide, there was added a measured amount of antidote dispersed or dissolved in acetone. The quantity of soil treated with the herbicide and antidote was thoroughly mixed to incorporate the herbicide and antidote in the soil uniformly. The seed bed in the third container of soil was covered with the soil treated with the herbicide and antidote and the container was leveled. For each test series, the seed beds of the first and second containers were likewise covered by soil layers. the cover layer of the first container was not treated with herbicide or antidote.
The containers were then placed on a bench in a greenhouse and sub-irrigated as required for the duration of the test. […] Plant response is measured in terms of percent injury. Antidote efficacy is indicated as the difference in plant injury by the herbicide(s) without the antidote and with the antidote.
This procedure is the same as Procedure I, but modified in the manner that after incorporation of the chemicals (herbicide and antidote) the containers with the covered seedbed were treated with an initial overhead irrigation equivalent to 0.6 cm rainfall, then subsequently sub-irrigated as required on greenhouse benches.
In the series of greenhouse tests described below, for routine screening purposes the herbicide/antidote compositions were tested in crop/weed combinations involving corn as the crop and either or both of the weeds barnyardgrass (Echinochloa crusgalli), a monocotyledonous weed, and velvetleaf (Abutilon theophrasti), a dicotyledonous weed. In the tables below, these weeds are indicated by the symbols "BYG" and "VL", respectively.
In this example, tests were conducted as in the preceding Examples 18-20, except here the co-herbicidal component was SUTAN® PLUS, a commercial product comprising as the active herbicidal ingredient the compound butylate (Herbicide No. 10) and an antidote […] (Antidote No. 1). Again, the antidotal compounds herein were Nos. 1, 2, 7, 13 and 15. Procedure II was used.
The experiments in this example were designed as a retest of those described in Example 21 in view of the uncharacteristically poor corn safety and weed control, believed to have resulted from unseasonably high temperatures in the greenhouse. Accordingly, temperatures were reduced for these tests.

[2] = system: Giant foxtail (Setaria fabergi); assay: Example 24, Procedure II: Herbicide No. 1 + co-herbicides Nos. 4, 6, 7, 12 with Antidote Nos. 15 and 17-21; settings: Setaria
In short: (§1)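 Greenhouse pots, herbicide No. 1 plus co-herbicides and antidote in acetone incorporated into silt loam soil covering the corn seed bed, with giant foxtail and velvetleaf; initial overhead irrigation equal to 0.6 cm rainfall, then sub-irrigation. Antidote at 2.24 kg/ha; percent injury read 13 days after application, duplicate average.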

corn = assay: as above; settings: Zea mays
In short: as §1

[3] = system: velvetleaf (Abutilon theophrasti); assay: as above; settings: Abutilon theophrasti
In short: as §1

In the case of `COC(=O)c1c(Cl)nn(C)c1S(=O)(=O)NC(=O)Nc1nc(OC)cc(OC)n1` [Herbicide No. 1], the “% Injury VL” value ([1]; Herbicide No.1 0.56 Kg/ha + SUTAN + 8.96 Kg/ha, no added antidote) is reported as 80%, the “% Injury VL” value ([1]; Herbicide No.1 0.56 Kg/ha alone) is reported as 65% and the “% Injury VL” value ([1]; Herbicide No.1 1.12 Kg/ha + SUTAN + 8.96 Kg/ha, no added antidote) is reported as 85%. The “% Injury VL” value ([1]; Herbicide No.1 1.12 Kg/ha alone) was 80%, the inhibition at 1120 g/ha ([2]; read-out: % Inhibition GFT, Herb. No. 1 0.07 Kg/ha + Co-Herb. No. 4 1.12 Kg/ha, no antidote) was 70% and the inhibition at 140 g/ha ([2]; read-out: % Inhibition GFT, Herb. No. 1 0.07 Kg/ha + Co-Herb. No. 6 0.14 Kg/ha, no antidote) was 100%. The inhibition at 280 g/ha ([2]; read-out: % Inhibition GFT, Herb. No. 1 0.07 Kg/ha + Co-Herb. No. 7 0.28 Kg/ha, no antidote) was 100%, the inhibition at 280 g/ha ([2]; read-out: % Inhibition GFT, Herb. No. 1 0.07 Kg/ha + Co-Herb. No. 12 0.28 Kg/ha, no antidote) was 99% and the inhibition at 1120 g/ha ([2]; read-out: % Inhibition GFT, Herb. No. 1 0.14 Kg/ha + Co-Herb. No. 4 1.12 Kg/ha, no antidote) was 80%. For the same compound, the inhibition at 140 g/ha ([2]; read-out: % Inhibition GFT, Herb. No. 1 0.14 Kg/ha + Co-Herb. No. 6 0.14 Kg/ha, no antidote) was 100%, the inhibition at 280 g/ha ([2]; read-out: % Inhibition GFT, Herb. No. 1 0.14 Kg/ha + Co-Herb. No. 7 0.28 Kg/ha, no antidote) was 100% and the inhibition at 280 g/ha ([2]; read-out: % Inhibition GFT, Herb. No. 1 0.14 Kg/ha + Co-Herb. No. 12 0.28 Kg/ha, no antidote) was 99%. For the same compound, the inhibition at 1120 g/ha ([2]; read-out: % Inhibition GFT, Herb. No. 1 0.28 Kg/ha + Co-Herb. No. 4 1.12 Kg/ha, no antidote) was 85%, the inhibition at 140 g/ha ([2]; read-out: % Inhibition GFT, Herb. No. 1 0.28 Kg/ha + Co-Herb. No. 6 0.14 Kg/ha, no antidote) was 100% and the inhibition at 280 g/ha ([2]; read-out: % Inhibition GFT, Herb. No. 1 0.28 Kg/ha + Co-Herb. No. 7 0.28 Kg/ha, no antidote) was 100%. For the same compound, the inhibition at 280 g/ha ([2]; read-out: % Inhibition GFT, Herb. No. 1 0.28 Kg/ha + Co-Herb. No. 12 0.28 Kg/ha, no antidote) was 99%, the inhibition at 1120 g/ha ([2]; read-out: % Inhibition GFT, Herb. No. 1 0.56 Kg/ha + Co-Herb. No. 4 1.12 Kg/ha, no antidote) was 75% and the inhibition at 140 g/ha ([2]; read-out: % Inhibition GFT, Herb. No. 1 0.56 Kg/ha + Co-Herb. No. 6 0.14 Kg/ha, no antidote) was 100%. The inhibition at 280 g/ha ([2]; read-out: % Inhibition GFT, Herb. No. 1 0.56 Kg/ha + Co-Herb. No. 7 0.28 Kg/ha, no antidote) was 99%, the inhibition at 280 g/ha ([2]; read-out: % Inhibition GFT, Herb. No. 1 0.56 Kg/ha + Co-Herb. No. 12 0.28 Kg/ha, no antidote) was 99% and the inhibition at 1120 g/ha (corn; read-out: % Inhibition Corn, Herb. No. 1 0.07 Kg/ha + Co-Herb. No. 4 1.12 Kg/ha, no antidote) was 10%. The inhibition at 140 g/ha (corn; read-out: % Inhibition Corn, Herb. No. 1 0.07 Kg/ha + Co-Herb. No. 6 0.14 Kg/ha, no antidote) was 5%, the inhibition at 280 g/ha (corn; read-out: % Inhibition Corn, Herb. No. 1 0.07 Kg/ha + Co-Herb. No. 7 0.28 Kg/ha, no antidote) was 5% and the inhibition at 280 g/ha (corn; read-out: % Inhibition Corn, Herb. No. 1 0.07 Kg/ha + Co-Herb. No. 12 0.28 Kg/ha, no antidote) was 5%. For the same compound, the inhibition at 1120 g/ha (corn; read-out: % Inhibition Corn, Herb. No. 1 0.14 Kg/ha + Co-Herb. No. 4 1.12 Kg/ha, no antidote) was 20%, the inhibition at 140 g/ha (corn; read-out: % Inhibition Corn, Herb. No. 1 0.14 Kg/ha + Co-Herb. No. 6 0.14 Kg/ha, no antidote) was 20% and the inhibition at 280 g/ha (corn; read-out: % Inhibition Corn, Herb. No. 1 0.14 Kg/ha + Co-Herb. No. 7 0.28 Kg/ha, no antidote) was 15%. The inhibition at 280 g/ha (corn; read-out: % Inhibition Corn, Herb. No. 1 0.14 Kg/ha + Co-Herb. No. 12 0.28 Kg/ha, no antidote) was 10%, the inhibition at 1120 g/ha (corn; read-out: % Inhibition Corn, Herb. No. 1 0.28 Kg/ha + Co-Herb. No. 4 1.12 Kg/ha, no antidote) was 25% and the inhibition at 140 g/ha (corn; read-out: % Inhibition Corn, Herb. No. 1 0.28 Kg/ha + Co-Herb. No. 6 0.14 Kg/ha, no antidote) was 25%. For the same compound, the inhibition at 280 g/ha (corn; read-out: % Inhibition Corn, Herb. No. 1 0.28 Kg/ha + Co-Herb. No. 7 0.28 Kg/ha, no antidote) was 30%, the inhibition at 280 g/ha (corn; read-out: % Inhibition Corn, Herb. No. 1 0.28 Kg/ha + Co-Herb. No. 12 0.28 Kg/ha, no antidote) was 30% and the inhibition at 1120 g/ha (corn; read-out: % Inhibition Corn, Herb. No. 1 0.56 Kg/ha + Co-Herb. No. 4 1.12 Kg/ha, no antidote) was 40%. For the same compound, the inhibition at 140 g/ha (corn; read-out: % Inhibition Corn, Herb. No. 1 0.56 Kg/ha + Co-Herb. No. 6 0.14 Kg/ha, no antidote) was 40%, the inhibition at 280 g/ha (corn; read-out: % Inhibition Corn, Herb. No. 1 0.56 Kg/ha + Co-Herb. No. 7 0.28 Kg/ha, no antidote) was 45% and the inhibition at 280 g/ha (corn; read-out: % Inhibition Corn, Herb. No. 1 0.56 Kg/ha + Co-Herb. No. 12 0.28 Kg/ha, no antidote) was 45%. The inhibition at 1120 g/ha ([3]; read-out: % Inhibition VL, Herb. No. 1 0.07 Kg/ha + Co-Herb. No. 4 1.12 Kg/ha, no antidote) was 90%, the inhibition at 140 g/ha ([3]; read-out: % Inhibition VL, Herb. No. 1 0.07 Kg/ha + Co-Herb. No. 6 0.14 Kg/ha, no antidote) was 85% and the inhibition at 280 g/ha ([3]; read-out: % Inhibition VL, Herb. No. 1 0.07 Kg/ha + Co-Herb. No. 7 0.28 Kg/ha, no antidote) was 90%. It also gave an inhibition at 280 g/ha ([3]; read-out: % Inhibition VL, Herb. No. 1 0.07 Kg/ha + Co-Herb. No. 12 0.28 Kg/ha, no antidote) of 85%, an inhibition at 1120 g/ha ([3]; read-out: % Inhibition VL, Herb. No. 1 0.14 Kg/ha + Co-Herb. No. 4 1.12 Kg/ha, no antidote) of 90% and an inhibition at 140 g/ha ([3]; read-out: % Inhibition VL, Herb. No. 1 0.14 Kg/ha + Co-Herb. No. 6 0.14 Kg/ha, no antidote) of 95%. It also gave an inhibition at 280 g/ha ([3]; read-out: % Inhibition VL, Herb. No. 1 0.14 Kg/ha + Co-Herb. No. 7 0.28 Kg/ha, no antidote) of 90%, an inhibition at 280 g/ha ([3]; read-out: % Inhibition VL, Herb. No. 1 0.14 Kg/ha + Co-Herb. No. 12 0.28 Kg/ha, no antidote) of 90% and an inhibition at 1120 g/ha ([3]; read-out: % Inhibition VL, Herb. No. 1 0.28 Kg/ha + Co-Herb. No. 4 1.12 Kg/ha, no antidote) of 95%. For the same compound, the inhibition at 140 g/ha ([3]; read-out: % Inhibition VL, Herb. No. 1 0.28 Kg/ha + Co-Herb. No. 6 0.14 Kg/ha, no antidote) was 95%, the inhibition at 280 g/ha ([3]; read-out: % Inhibition VL, Herb. No. 1 0.28 Kg/ha + Co-Herb. No. 7 0.28 Kg/ha, no antidote) was 95% and the inhibition at 280 g/ha ([3]; read-out: % Inhibition VL, Herb. No. 1 0.28 Kg/ha + Co-Herb. No. 12 0.28 Kg/ha, no antidote) was 95%. For the same compound, the inhibition at 1120 g/ha ([3]; read-out: % Inhibition VL, Herb. No. 1 0.56 Kg/ha + Co-Herb. No. 4 1.12 Kg/ha, no antidote) was 90%, the inhibition at 140 g/ha ([3]; read-out: % Inhibition VL, Herb. No. 1 0.56 Kg/ha + Co-Herb. No. 6 0.14 Kg/ha, no antidote) was 95% and the inhibition at 280 g/ha ([3]; read-out: % Inhibition VL, Herb. No. 1 0.56 Kg/ha + Co-Herb. No. 7 0.28 Kg/ha, no antidote) was 95%. It also gave an inhibition at 280 g/ha ([3]; read-out: % Inhibition VL, Herb. No. 1 0.56 Kg/ha + Co-Herb. No. 12 0.28 Kg/ha, no antidote) of 90%.
